According to paper PMC10046961, “High-Throughput Screening Assay for Detecting Drug-Induced Changes in Synchronized Neuronal Oscillations and Potential Seizure Risk Based on Ca^2+ Fluorescence Measurements in Human Induced Pluripotent Stem Cell (hiPSC)-Derived Neuronal 2D and 3D Cultures” (Cells, 2023):
Read-outs that look alike come from different tables or passages of the source. Marks after values point to notes of the source that are not given here.

Legend:
[1] = system: hiPSC-derived neurons co-cultured with human primary astrocytes in 2D; test: Ca2+ transient oscillation assay (FDSS), 2D co-culture; type: cell-based; details: for effect on peak number / Ca2+ neuronal oscillations, in words: 2D format; for activation at 0.11 µM / activation at 0.33 µM / activation at 1 µM / activation at 3 µM / activation at 0.37 µM / activation at 1.11 µM / activation at 3.33 µM / activation at 10 µM: Homo sapiens, 1 h, 60 min
Procedure, shortened: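 Cultures were 10,000 CW50065 hiPSC excitatory neurons plus 2500 primary human astrocytes per well. Recordings used Cal-520 dye in HBSS/HEPES/glucose at 37 °C, with a 470/540 nm read at 2 Hz. Oscillations were stabilized with 0.04% DMSO, read for 20 min, then read again 60 min after compound addition (final DMSO 0.1%).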

[2] = ref PharmaPendium, cited from earlier work
[3] = system: hiPSC-derived neurons co-cultured with human primary astrocytes in 3D; test: Ca2+ transient oscillation assay (FDSS), 3D spheroids; type: cell-based; details: for Area under the curve - 3D Mean / Peak Number—3D Mean / Peak amplitude - 3D Mean / Peak width - 3D Mean / Peak-to-peak interval - 3D Mean: 60 min
Procedure, shortened: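 Fura-2 fluorescence was read twice for 20 min each: a baseline 10 min after 0.04% DMSO, and again 60 min after compound addition at nominal final concentration. The 3D co-cultures (1:1 hiPSC neurons from a donor and human astrocytes, 8000 each) matured 5 weeks in BrainPhys medium after a 1-week differentiation.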

[4] = read-out: Area under the curve - 2D Mean
[5] = read-out: Peak amplitude - 2D Mean
[6] = read-out: Peak-to-peak interval - 2D Mean
[7] = Table 1, peak plasma concentration in men, free therapeutic Cmax
[8] = Table 2, highest plasma concentration in humans after the therapeutic dose

In the case of `NCCCC(=O)O` [GABA, gamma-aminobutyric acid], the “effect on peak number / Ca2+ neuronal oscillations, in words” value [1] is reported as “significantly reduced peak number”, the activation at 0.11 µM [1, 4] is reported as 23.1% and the activation at 0.11 µM ([1]; read-out: Peak Number—2D Mean) is reported as -1.6%. For the same compound, the activation at 0.11 µM [1, 5] was 9.1%, the activation at 0.11 µM ([1]; read-out: Peak width - 2D Mean) was 13.2% and the activation at 0.11 µM [1, 6] was -12.3%. For the same compound, the activation at 0.33 µM [1, 4] was 21.1%, the activation at 0.33 µM ([1]; read-out: Peak Number—2D Mean) was -4.4% and the activation at 0.33 µM [1, 5] was 5.7%. For the same compound, the activation at 0.33 µM ([1]; read-out: Peak width - 2D Mean) was 15.4%, the activation at 0.33 µM [1, 6] was 29.1% and the activation at 1 µM [1, 4] was 16.4%. It also gave an activation at 1 µM ([1]; read-out: Peak Number—2D Mean) of -12.4%, an activation at 1 µM [1, 5] of -1.4% and an activation at 1 µM ([1]; read-out: Peak width - 2D Mean) of 11.7%. It also gave an activation at 1 µM [1, 6] of 32%, an activation at 3 µM [1, 4] of 14.9% and an activation at 3 µM ([1]; read-out: Peak Number—2D Mean) of -36.5%. For the same compound, the activation at 3 µM [1, 5] was -2.7%, the activation at 3 µM ([1]; read-out: Peak width - 2D Mean) was 8.5% and the activation at 3 µM [1, 6] was -26.3%. For the same compound, the “Free Cmax” value [2, 7] was ~1000 nM, the “Free Cmax” value [2, 8] was ~1000 nM and the “Area under the curve - 3D Mean” value ([3]; 0.11 µM) was 111.5 % change from baseline. For the same compound, the “Peak Number—3D Mean” value ([3]; 0.11 µM) was 5.0 % change from baseline, the “Peak amplitude - 3D Mean” value ([3]; 0.11 µM) was 87.8 % change from baseline and the “Peak width - 3D Mean” value ([3]; 0.11 µM) was 7.6 % change from baseline. For the same compound, the “Peak-to-peak interval - 3D Mean” value ([3]; 0.11 µM) was 0.2 % change from baseline, the “Area under the curve - 3D Mean” value ([3]; 0.33 µM) was 116.2 % change from baseline and the “Peak Number—3D Mean” value ([3]; 0.33 µM) was −1.8 % change from baseline. The “Peak amplitude - 3D Mean” value ([3]; 0.33 µM) was 112.0 % change from baseline, the “Peak width - 3D Mean” value ([3]; 0.33 µM) was 0.5 % change from baseline and the “Peak-to-peak interval - 3D Mean” value ([3]; 0.33 µM) was −2.1 % change from baseline. For the same compound, the “Area under the curve - 3D Mean” value ([3]; 1 µM) was 97.0 % change from baseline, the “Peak Number—3D Mean” value ([3]; 1 µM) was −0.6 % change from baseline and the “Peak amplitude - 3D Mean” value ([3]; 1 µM) was 90.5 % change from baseline. For the same compound, the “Peak width - 3D Mean” value ([3]; 1 µM) was −2.7 % change from baseline, the “Peak-to-peak interval - 3D Mean” value ([3]; 1 µM) was 8.3 % change from baseline and the “Area under the curve - 3D Mean” value ([3]; 3 µM) was 118.7 % change from baseline. For the same compound, the “Peak Number—3D Mean” value ([3]; 3 µM) was 2.2 % change from baseline, the “Peak amplitude - 3D Mean” value ([3]; 3 µM) was 110.9 % change from baseline and the “Peak width - 3D Mean” value ([3]; 3 µM) was 0.7 % change from baseline. For the same compound, the “Peak-to-peak interval - 3D Mean” value ([3]; 3 µM) was −2.5 % change from baseline.
With `Nc1ccncc1` [4-AP, 4-Aminopyridine] the “effect on peak number / Ca2+ neuronal oscillations, in words” value [1] was “significantly increased peak number”, the “response of positive controls on Ca2+ transient oscillations” value ([1]; 2D, 4-AP 30 µM, kainic acid 100 µM) was “significant responses” and the “change of Ca2+ neuronal oscillations (Figure 1)” value ([1]; 4-AP at 30 µM, kainic acid at 10 µM) was “large increases”. For the same compound, the activation at 0.37 µM [1, 4] was 39.5%, the activation at 0.37 µM ([1]; read-out: Peak Number—2D Mean) was 9% and the activation at 0.37 µM [1, 5] was 13.3%. It also gave an activation at 0.37 µM ([1]; read-out: Peak width - 2D Mean) of 34%, an activation at 0.37 µM [1, 6] of -13% and an activation at 1.11 µM [1, 4] of 18.7%. The activation at 1.11 µM ([1]; read-out: Peak Number—2D Mean) was 70.3%, the activation at 1.11 µM [1, 5] was 7.8% and the activation at 1.11 µM ([1]; read-out: Peak width - 2D Mean) was 14.3%. The activation at 1.11 µM [1, 6] was -29.8%, the activation at 3.33 µM [1, 4] was 17.6% and the activation at 3.33 µM ([1]; read-out: Peak Number—2D Mean) was 85.8%. The activation at 3.33 µM [1, 5] was 10.4%, the activation at 3.33 µM ([1]; read-out: Peak width - 2D Mean) was 12.6% and the activation at 3.33 µM [1, 6] was -42.4%. The activation at 10 µM [1, 4] was 1.3%, the activation at 10 µM ([1]; read-out: Peak Number—2D Mean) was 110% and the activation at 10 µM [1, 5] was 8.5%. For the same compound, the activation at 10 µM ([1]; read-out: Peak width - 2D Mean) was -6.3%, the activation at 10 µM [1, 6] was -49.8% and the “Free Cmax” value [2, 7] was 25 to 75 nM. The “Free Cmax” value [2, 8] was 25 to 75 nM, the “Area under the curve - 3D Mean” value ([3]; 0.37 µM) was 53.7 % change from baseline and the “Peak Number—3D Mean” value ([3]; 0.37 µM) was 16.7 % change from baseline. The “Peak amplitude - 3D Mean” value ([3]; 0.37 µM) was 44.3 % change from baseline, the “Peak width - 3D Mean” value ([3]; 0.37 µM) was 2.8 % change from baseline and the “Peak-to-peak interval - 3D Mean” value ([3]; 0.37 µM) was −9.2 % change from baseline. For the same compound, the “Area under the curve - 3D Mean” value ([3]; 1.11 µM) was 54.1 % change from baseline, the “Peak Number—3D Mean” value ([3]; 1.11 µM) was 62.4 * % change from baseline and the “Peak amplitude - 3D Mean” value ([3]; 1.11 µM) was 39.6 % change from baseline. For the same compound, the “Peak width - 3D Mean” value ([3]; 1.11 µM) was 7.7 % change from baseline, the “Peak-to-peak interval - 3D Mean” value ([3]; 1.11 µM) was −24.1 % change from baseline and the “Area under the curve - 3D Mean” value ([3]; 3.33 µM) was 97.2 % change from baseline. For the same compound, the “Peak Number—3D Mean” value ([3]; 3.33 µM) was 24.1 * % change from baseline, the “Peak amplitude - 3D Mean” value ([3]; 3.33 µM) was 46.1 % change from baseline and the “Peak width - 3D Mean” value ([3]; 3.33 µM) was 35.1 % change from baseline. The “Peak-to-peak interval - 3D Mean” value ([3]; 3.33 µM) was −17.6 % change from baseline, the “Area under the curve - 3D Mean” value ([3]; 10 µM) was 72.3 % change from baseline and the “Peak Number—3D Mean” value ([3]; 10 µM) was 89.0 ** % change from baseline. The “Peak amplitude - 3D Mean” value ([3]; 10 µM) was 42.8 % change from baseline, the “Peak width - 3D Mean” value ([3]; 10 µM) was 21.4 % change from baseline and the “Peak-to-peak interval - 3D Mean” value ([3]; 10 µM) was −47.2 % change from baseline. The “response of positive controls on Ca2+ transient oscillations” value ([3]; 3D, 4-AP 30 µM, kainic acid 100 µM) was “significant responses”.
For `CNCCCC12CCC(c3ccccc31)c1ccccc12` [Maprotiline], the “effect on peak number / Ca2+ neuronal oscillations, in words” value [1] was “significantly reduced peak number”, the activation at 0.37 µM [1, 4] was 12.2% and the activation at 0.37 µM ([1]; read-out: Peak Number—2D Mean) was -0.7%. For the same compound, the activation at 0.37 µM [1, 5] was 8.3%, the activation at 0.37 µM ([1]; read-out: Peak width - 2D Mean) was 4.5% and the activation at 0.37 µM [1, 6] was 1.8%. For the same compound, the activation at 1.11 µM [1, 4] was -55.2%, the activation at 1.11 µM ([1]; read-out: Peak Number—2D Mean) was 0.5% and the activation at 1.11 µM [1, 5] was -19.8%. The activation at 1.11 µM ([1]; read-out: Peak width - 2D Mean) was -57.2%, the activation at 1.11 µM [1, 6] was 11.7% and the activation at 3.33 µM [1, 4] was -100%. For the same compound, the activation at 3.33 µM ([1]; read-out: Peak Number—2D Mean) was -100%, the activation at 3.33 µM [1, 5] was -100% and the activation at 3.33 µM ([1]; read-out: Peak width - 2D Mean) was -100%. It also gave an activation at 3.33 µM [1, 6] of -100%, an activation at 10 µM [1, 4] of -100% and an activation at 10 µM ([1]; read-out: Peak Number—2D Mean) of -100%. It also gave an activation at 10 µM [1, 5] of -100%, an activation at 10 µM ([1]; read-out: Peak width - 2D Mean) of -100% and an activation at 10 µM [1, 6] of -100%. For the same compound, the “Free Cmax” value [2, 7] was 60 nM, the “Free Cmax” value [2, 8] was 60 nM and the “Area under the curve - 3D Mean” value ([3]; 0.37 µM) was 139.7 % change from baseline. For the same compound, the “Peak Number—3D Mean” value ([3]; 0.37 µM) was −16.5 % change from baseline, the “Peak amplitude - 3D Mean” value ([3]; 0.37 µM) was 116.3 % change from baseline and the “Peak width - 3D Mean” value ([3]; 0.37 µM) was 6.2 % change from baseline. The “Peak-to-peak interval - 3D Mean” value ([3]; 0.37 µM) was 6.2 % change from baseline, the “Area under the curve - 3D Mean” value ([3]; 1.11 µM) was 133.4 % change from baseline and the “Peak Number—3D Mean” value ([3]; 1.11 µM) was −8.2 % change from baseline. For the same compound, the “Peak amplitude - 3D Mean” value ([3]; 1.11 µM) was 131.3 % change from baseline, the “Peak width - 3D Mean” value ([3]; 1.11 µM) was −1.0 % change from baseline and the “Peak-to-peak interval - 3D Mean” value ([3]; 1.11 µM) was 8.4 % change from baseline. The “Area under the curve - 3D Mean” value ([3]; 3.33 µM) was 123.1 % change from baseline, the “Peak Number—3D Mean” value ([3]; 3.33 µM) was −7.9 % change from baseline and the “Peak amplitude - 3D Mean” value ([3]; 3.33 µM) was 130.1 % change from baseline. For the same compound, the “Peak width - 3D Mean” value ([3]; 3.33 µM) was −3.2 % change from baseline, the “Peak-to-peak interval - 3D Mean” value ([3]; 3.33 µM) was 10.6 % change from baseline and the “Area under the curve - 3D Mean” value ([3]; 10 µM) was 11.9 % change from baseline. The “Peak Number—3D Mean” value ([3]; 10 µM) was 1.9 % change from baseline, the “Peak amplitude - 3D Mean” value ([3]; 10 µM) was 72.2 % change from baseline and the “Peak width - 3D Mean” value ([3]; 10 µM) was −40.8 % change from baseline. For the same compound, the “Peak-to-peak interval - 3D Mean” value ([3]; 10 µM) was −4.1 % change from baseline and the “effect on peak number of oscillations, in words” value ([3]; 3D-cultured) was “did not significantly change the peak number”.
